Source: patent EP2407164A1, “Copper II complexes of phenanthroline and their use in cancer treatment” (Dublin Institute of Technology Intellectual Property Ltd, priority 2010, dated 2012)
Numbered stars: 1 amine (or outer) side, 2 acyl side, 3 side chain; on linkers, the order of the positions; unused ones are H or OH. Bridge positions count the residues as written; N and C are the ends. Square brackets hold non-standard residues; d marks the D form. Peptide text beside a SMILES is read from it. I, II: the chains in the order shown. Actinocin(9to1) = Cc1c2oc3c(C)ccc(C(=O)[*:1])c3nc-2c(C(=O)[*:2])c(N)c1=O; NMeV = CN[CH](C(=O)O)C(C)C; Sar = CNCC(=O)O

How the values were obtained:
SK-OV-3 = test: MTT cytotoxicity assay, complexes 1-6; type: cell-based, Human; settings: SK-OV-3 ovarian cancer, 24 hr exposure, mean of three independent experiments +/- standard error
Protocol: (§1) MTT Assay. This method is based on the reduction of the tetrazolium salt, methylthiazolyldiphenyl-tetrazolium bromide (MTT) into a crystalline blue formazan product by the cellular oxidoreductases of viable cells. The resultant formazan crystal formation is proportional to the number of viable cells. Cells were seeded at 4x 10^5 cells/ml in 96-well plates and incubated at 37°C in 5% CO2 for 24 hours. Cells were treated with a four log range of concentration of the test compounds in triplicate from 0.1 to 500 µM or with a solvent control (0.5% DMSO) in complete medium. Following 24 h incubation, cells were incubated with 20 µl of MTT (5 mg/ml) in 0.1 M PBS, pH 7.4 at 37 °C in a humid atmosphere with 5% CO2 for 4 h. Media was then gently aspirated from test cultures and 100 µL of dimethyl sulphoxide (DMSO) was added to all wells. The plates were then shaken for 2 min and the absorbance was read at 550 nm in a Varioscan plate reader. The IC50 was defined as the concentration of test compound required to reduce the absorbance of the MTT-formazan crystals by 50%, indicating 50% cell deactivation.
Cu(II) bis-phen complexes 4-6 display rapid, low micomolar toxicities against all tumor lines. […] It should be noted that 6 is dinuclear and so contains two active copper units, which may explain this heightened potency.

DU145 = test: MTT cytotoxicity assay, complexes 1-6; type: cell-based, Human; settings: 24 hr exposure, mean of three independent experiments +/- standard error
Protocol: (§2) Human colon cancer cell line, HT29 (passage 17 to 30, ATCC, USA), was grown in McCoys's 5a medium supplemented with 2mM L-glutamine and fetal bovine serum (FBS) 10% and containing 100U/ ml penicillin and 100µg / ml streptomycin at 37°C in a humidified atmosphere with 5% CO2 Human Breast Cancer cell line, MCF-7 (passage 16 to 26, ATCC, USA) was grown in Eagle's minimum essential medium containing 2mM L-glutamine, 100U/ ml penicillin,100µg/ ml streptomycin, FBS (10%), 1mM sodium pyruvate and 1% (v/v) non essential amino acids at 37°C in a humidified atmosphere with 5% CO2 Human prostate cancer cell line, DU145 (passage 12 to 29, ATCC, USA) was grown in Eagle's minimum essential medium containing 2mM L-glutamine, 100U/ ml penicillin, 100µg/ ml streptomycin, FBS (10%), 1mM sodium pyruvate and 1% (v/v) non essential amino acids at 37°C in a humidified atmosphere with 5% CO2. All drugs were tested by MTT assay following 24-hour exposure of cells to each compound. Each value represents the mean IC50 of three independent experiments +/- standard error.
as §1

MCF-7 = test: MTT cytotoxicity assay, complexes 1-6; type: cell-based, Human; settings: 24 hr exposure, mean of three independent experiments +/- standard error
Protocol: as §2, §1

HT29 [1] = test: MTT cytotoxicity assay, complexes 1-6; type: cell-based, Human; settings: 24 hr exposure, mean of three independent experiments +/- standard error
Protocol: as §2, §1

[2] = Solubility in organic solvents; settings: DMSO/DMF
CT-DNA = test: Competitive ethidium bromide displacement; type: binding, calf; settings: 1.2 µM EtBr, 1 µM CT-DNAp, pH 7.0; for Kapp (apparent binding constant): Kapp = Ke x 1.26/C50 where Ke = 9.5 x 10^6 M(bp)^-1; for IC50: final volume 2 mL, 10 mM TES, 0.1 mM Na2EDTA, read-out: C50 = concentration required to reduce fluorescence by 50%
Protocol: Competitive Ethidium Displacement. […] Complexes 4-6, actinomycin D, pentamidine isethionate were prepared at 2.0 mM in DMSO. Two millilitres of DNA-Et solution were placed in a 10-mm quartz cuvet (3 mL) and positioned in a temperature controlled (20°C) spectrofluorometer (Perkin Elmer LS55B Luminescence Spectrometer). Excitation and emission wavelengths were set to 546 and 595 nm, respectively. After thermal equilibrium was established the emission and excitation slits were modified to give a fluorescence reading of 50 arbitrary units with measurements being recorded over a 20-s interval. An aliquot of complex or drug solution was taken (0.5 - 10 µL), was added to the cuvette and after equilibration the fluorescence reading was recorded. Repeated aliquots were added until the fluorescence was 20-40% of the initial control. Triplicate titrations were preformed and the apparent binding constants were calculated using Kapp = Ke x 1.26/C50 where Ke = 9.5 x 10^6 M(bp)^-1.

poly[d(A-T)]2 = test: DNA-ethidium fluorescence quenching; type: binding; settings: Q = equivalent concentration required to reduce fluorescence by 50%; 2.0 µM EtBr, 20 µM DNAp, 2 mM NaOAc buffer, 9.3 mM NaCl, pH 5.0
Protocol: (§3) DNA-Ethidium Fluorescence Quenching. Working solutions containing 20 µM poly[d(AT)]2 (ε260 = 13,100 M(bp)^-1 cm^-1), poly[d(G-C)]2 (ε260 = 16,800 M(bp)^-1 cm^-1) and CT-DNAp (ε260 = 12,824 M(bp)^-1 cm^-1) along with 2.0 µM Et in NaOAc buffer (2 mM NaOAc, 9.3 mM NaCl, 0.1 mM Na2EDTA, pH = 5.0) were prepared. Subsequent experimental steps are identical to the displacement experiment with the exception that a fluorescence reading of 200 arbitrary units with measurements being recorded over a 20-s interval was used. From a plot of the fluorescence vs added drug concentration, the Q values is given by the concentration required to effect 50% removal of the initial fluorescence.

poly[d(G-C)]2 = test: DNA-ethidium fluorescence quenching; type: binding; settings: Q = equivalent concentration required to reduce fluorescence by 50%; 2.0 µM EtBr, 20 µM DNAp, 2 mM NaOAc buffer, 9.3 mM NaCl, pH 5.0
Protocol: as §3

SW480 = test: MTT cytotoxicity assay, complex 7; type: cell-based; settings: SW480 (Dukes' B) colon cancer line, 24 hr
Protocol: (§4) For cytotoxicity evaluation HT29, SW480 and SW620 cell lines were employed; all the cell lines were grown in RPMI 1640 media (Fischer). All media were supplemented with 10% foetal bovine serum (FBS) and 45 IU/ml penicillin and 45 µg/ml streptomycin and cells were maintained at 37 °C in a 5% CO2 humidified incubator.
(§5) For sterilisation samples were filtered with a 0.2 micron cellulose acetate filter. For cytotoxicological evaluation all samples were prepared fresh on the day of exposure. A stock concentration of test compound was prepared in the exposure media (10% DMEM F-12) necessary for the cell line under test. This sample was vortexed to ensure a uniform dispersion of the compound under test.
(§6) For cytotoxicity assays cells were seeded in 96-well microplates (Nunc, Denmark) at a density of 1 x 10^5 cells/ml for the 24 hr test, 5 x10^4 cells/ml for the 48 hr test and 3 x 10^4 cells/ml for the 96 hr test. […] After 24 h of cell attachment, plates were washed with 100 µl/well phosphate buffered saline (PBS) and the cells were treated with increasing concentrations of each compound for 24 h. Six replicate wells were used for each control and test concentration per microplate. Following the desired time of compound exposure, control medium or test exposures were removed, the cells were rinsed with PBS and 100 µl of fresh medium (without FBS or supplements) was added to each well. 10 µl of MTT (5 mg/ml) prepared in PBS was then added to each well and the plates were incubated for 3 h at 37°C in a 5% CO2 humidified incubator. After this incubation period the medium was discarded, the cells were washed with 100 µl of PBS and 100 µl of DMSO was added to each well to extract the dye. The plate was shaken at 240 rpm for 10 min and the absorbance was measured at 570 nm.
(§7) At least three independent experiments were conducted in triplicate for each cell line and toxicity endpoint. […] Control values were set as 100%. Differences between samples and the control were evaluated using the statistical analysis package SPSS 14.0. Statistically significant differences were set at p≤0.05.

SW620 = test: MTT cytotoxicity assay, complex 7; type: cell-based; settings: SW620 (Dukes' C) colon cancer line, 24 hr
Protocol: as §4, §5, §6, §7

HT29 [3] = test: MTT cytotoxicity assay, complex 7; type: cell-based, Human; settings: HT29 colon cancer line, 24 hr
Protocol: as §4, §5
For cytotoxicity assays cells were seeded in 96-well microplates (Nunc, Denmark) at a density of 1 x 10^5 cells/ml for the 24 hr test, 5 x10^4 cells/ml for the 48 hr test and 3 x 10^4 cells/ml for the 96 hr test. […] After 24 h of cell attachment, plates were washed with 100 µl/well phosphate buffered saline (PBS) and the cells were treated with increasing concentrations of each compound for 24 h. […] The plate was shaken at 240 rpm for 10 min and the absorbance was measured at 570 nm.
At least three independent experiments were conducted in triplicate for each cell line and toxicity endpoint. […] Differences between samples and the control were evaluated using the statistical analysis package SPSS 14.0. […]

[4] = Homo sapiens, DU-145, DU145 prostate cancer
[5] = Homo sapiens, MCF7, MCF-7 breast cancer
[6] = Homo sapiens, HT-29, HT29 colon cancer

Compound	IC50 (SK-OV-3)	IC50 (DU145; DU145 prostate cancer)	IC50 (MCF-7; MCF-7 breast cancer)	IC50 (HT29 [1]; HT29 colon cancer)	Kapp (apparent binding constant) (CT-DNA)	IC50 (CT-DNA)	IC50 (poly[d(A-T)]2)	IC50 (poly[d(G-C)]2)	IC50 (SK-OV-3; Homo sapiens)	IC50 (DU145; [4])	IC50 (MCF-7; [5])	IC50 (HT29 [1]; [6])	further results
N.N.[Cl][Pt][Cl] [Cisplatin, reference compound]	> 500 µM	> 500 µM	90.8 ± 3.5 µM	349 ± 80.6 µM	–	–	–	–	–	–	–	–	–
O.O.O.O.O.O=C([O-])c1cccc(C(=O)[O-])c1.[Cu+2].c1cnc2c(c1)ccc1cccnc12.c1cnc2c(c1)ccc1cccnc12 [Complex 5, [Cu(isoph)(phen)2]5H2O]	6.6 ± 0.4 µM	10.6 ± 2.2 µM	41.2 ± 1.4 µM	5.8 ± 0.2 µM	1.20x10^5 M(bp)^-1	99.8 µM	20.9 µM	37.3 µM	–	–	–	–	Solubility [2]: DMSO/DMF
Cc1c2oc3c(C)ccc(C(=O)NC4C(=O)NC(C(C)C)C(=O)N5CCCC5C(=O)N(C)CC(=O)N(C)C(C(C)C)C(=O)OC4C)c3nc-2c(C(=O)NC2C(=O)NC(C(C)C)C(=O)N3CCCC3C(=O)N(C)CC(=O)N(C)C(C(C)C)C(=O)OC2C)c(N)c1=O (stereo not drawn) [actinomycin D, reference compound] (I: TVP[Sar][NMeV] / II: TVP[Sar][NMeV]; ester I:1-I:C, II:1-II:C; linker I:N-II:N via Actinocin(9to1); configuration not given here)	–	–	–	–	9.69 x 10^5 M(bp)^-1	12.3 µM	314 µM	4.25 µM	–	–	–	–	–
O=C(O)c1cccc(C(=O)O)c1 [isophH2, isophthalic acid, reference compound]	–	–	–	–	–	–	–	–	> 500 µM	> 500 µM	> 500 µM	> 500 µM	–
O=C1c2c(O)ccc(O)c2C(=O)c2c(NCCNCCO)ccc(NCCNCCO)c21 [mitoxantrone, reference compound]	–	–	–	–	–	–	–	–	54.5 ± 2.6 µM	27.3 ± 5.6 µM	7.5 ± 0.2 µM	8 ± 0.6 µM	–
N=C(N)c1ccc(OCCCCCOc2ccc(C(=N)N)cc2)cc1 [pentamidine, reference compound]	–	–	–	–	6.07x10^5 M(bp)^-1	19.7 µM	44.9 µM	203 µM	–	–	–	–	–
O=C(O)c1ccccc1C(=O)O [phH2, phthalic acid, reference compound]	–	–	–	–	–	–	–	–	> 500 µM	> 500 µM	> 500 µM	> 500 µM	–
c1cnc2c(c1)ccc1cccnc12 [phen, 1,10-phenanthroline]	–	–	–	–	–	–	–	–	286 ± 28.5 µM	272 ± 8 µM	338 ± 64.7 µM	377 ± 9.2 µM	Activity LD50 (SW480): >100 µM; Activity LD50 (SW620): >100 µM; Activity LD50 (HT29 [3]): >100 µM
O=C(O)c1ccc(C(=O)O)cc1 [terphH2, terephthalic acid, reference compound]	–	–	–	–	–	–	–	–	> 500 µM	> 500 µM	> 500 µM	> 500 µM	–
[Cu(ph)(phen)2]8H2O [Complex 4]	6.7 ± 0.4 µM	11.6 ± 4.5 µM	44.9 ± 7 µM	6 ± 0.4 µM	1.21x10^5 M(bp)^-1	99.1 µM	26.2 µM	69.8 µM	–	–	–	–	Solubility [2]: forms only suspensions in DMSO/DMF
{[Cu(isoph)(H2O)3]2H2O}n [Complex 2]	436 ± 29.4 µM	422 ± 22.4 µM	401 ± 54.1 µM	> 500 µM	–	–	–	–	–	–	–	–	Solubility [2]: DMSO/DMF
{[Cu(ph)(H2O)]}n [Complex 1]	> 500 µM	> 500 µM	> 500 µM	> 500 µM	–	–	–	–	–	–	–	–	–
{[Cu(tereph)(H2O)3]2H2O}n [Complex 3]	> 500 µM	> 500 µM	414 ± 26 µM	> 500 µM	–	–	–	–	–	–	–	–	–
